# Laboratory results from the kinase profiling compilation of Christmann-Franck et al. (2016).
# Several values for one entry are separate records, joined by “and”; a condition that tells them apart may be missing. Equal values may be shown once.
# Columns and labels:
# Assay in all cases: radiometric filter-binding kinase assay
# PAK6 (human) = PAK6 (human) (UniProt Q9NQU5); conditions: compound 100.0 µM; ATP 20 µM
# MARK3 (human) = MARK3 (human) (UniProt P27448); conditions: compound 100.0 µM; ATP 5 µM
# MARK1 (human) = MARK1 (human) (UniProt Q9P0L2); conditions: compound 100.0 µM; ATP 20 µM
# MST4 (human) = MST4 (human) (UniProt Q9P289); conditions: compound 100.0 µM; ATP 20 µM
# FGFR1 (human) = FGFR1 (human) (UniProt P11362); conditions: compound 100.0 µM; ATP 20 µM
# MAPK11 (human) = MAPK11 (human) (UniProt Q15759); conditions: compound 100.0 µM; ATP 20 µM
# STK16 (human) = STK16 (human) (UniProt O75716); conditions: compound 100.0 µM; ATP 50 µM
# MAP3K5 (human) = MAP3K5 (human) (UniProt Q99683); conditions: compound 100.0 µM; ATP 50 µM
# ROCK2 (rat) = conditions: compound 100.0 µM; ATP 20 µM; accession and sequence are those of the human protein
# TAOK1 (human) = TAOK1 (human) (UniProt Q7L7X3); conditions: compound 100.0 µM; ATP 20 µM
# STK3 (human) = STK3 (human) (UniProt Q13188); conditions: compound 100.0 µM; ATP 20 µM
# EPHA4 (human) = EPHA4 (human) (UniProt P54764); conditions: compound 100.0 µM; ATP 50 µM
# MKNK1 (human) = MKNK1 (human) (UniProt Q9BUB5); conditions: compound 100.0 µM; ATP 50 µM
# IRAK4 (human) = IRAK4 (human) (UniProt Q9NWZ3); conditions: compound 100.0 µM; ATP 20 µM
# RPS6KA1 KD1 KD2 (human) = RPS6KA1 KD1 KD2 (human) (UniProt Q15418); conditions: compound 100.0 µM; ATP 50 µM
# CSK (human) = CSK (human) (UniProt P41240); conditions: compound 100.0 µM; ATP 20 µM
# EEF2K (human) = EEF2K (human) (UniProt O00418); conditions: compound 100.0 µM; ATP 5 µM
# EPHA2 (human) = EPHA2 (human) (UniProt P29317); conditions: compound 100.0 µM; ATP 50 µM
# GCK (human) = GCK (human) (UniProt Q12851); conditions: compound 100.0 µM; ATP 20 µM
# MAP3K1 (human) = MAP3K1 (human) (UniProt Q13233); conditions: compound 100.0 µM; ATP 50 µM
# PTK6 (human) = PTK6 (human) (UniProt Q13882); conditions: compound 100.0 µM; ATP 20 µM
# EPHB4 (human) = EPHB4 (human) (UniProt P54760); conditions: compound 100.0 µM; ATP 5 µM
# BRSK1 (human) = BRSK1 (human) (UniProt Q8TDC3); conditions: compound 100.0 µM; ATP 20 µM
# MAPK8 (human) = MAPK8 (human) (UniProt P45983); conditions: compound 100.0 µM; ATP 20 µM
# EPHB3 (human) = EPHB3 (human) (UniProt P54753); conditions: compound 100.0 µM; ATP 20 µM
# LCK (mouse) = conditions: compound 100.0 µM; ATP 50 µM; accession and sequence are those of the human protein
# CLK2 (human) = CLK2 (human) (UniProt P49760); conditions: compound 100.0 µM; ATP 5 µM
# MARK4 (human) = MARK4 (human) (UniProt Q96L34); conditions: compound 100.0 µM; ATP 50 µM
# MAP3K7 TAB1 (human) = MAP3K7 TAB1 (human) (UniProt Q15750+O43318); conditions: compound 100.0 µM; ATP 5 µM
# PRKCZ (human) = PRKCZ (human) (UniProt Q05513); conditions: compound 100.0 µM; ATP 5 µM
# PLK1 (human) = PLK1 (human) (UniProt P53350); conditions: compound 100.0 µM; ATP 5 µM
# PIM1 (human) = PIM1 (human) (UniProt P11309); conditions: compound 100.0 µM; ATP 20 µM
# MAP2K2 (human) = MAP2K2 (human) (UniProt P36507); conditions: compound 100.0 µM; ATP 5 µM
# PRKACA (human) = PRKACA (human) (UniProt P17612); conditions: compound 100.0 µM; ATP 20 µM
# MAPK12 (human) = MAPK12 (human) (UniProt P53778); conditions: compound 100.0 µM; ATP 5 µM
# MAP3K5 (human), sequence (Q99683 whole entry, looked up): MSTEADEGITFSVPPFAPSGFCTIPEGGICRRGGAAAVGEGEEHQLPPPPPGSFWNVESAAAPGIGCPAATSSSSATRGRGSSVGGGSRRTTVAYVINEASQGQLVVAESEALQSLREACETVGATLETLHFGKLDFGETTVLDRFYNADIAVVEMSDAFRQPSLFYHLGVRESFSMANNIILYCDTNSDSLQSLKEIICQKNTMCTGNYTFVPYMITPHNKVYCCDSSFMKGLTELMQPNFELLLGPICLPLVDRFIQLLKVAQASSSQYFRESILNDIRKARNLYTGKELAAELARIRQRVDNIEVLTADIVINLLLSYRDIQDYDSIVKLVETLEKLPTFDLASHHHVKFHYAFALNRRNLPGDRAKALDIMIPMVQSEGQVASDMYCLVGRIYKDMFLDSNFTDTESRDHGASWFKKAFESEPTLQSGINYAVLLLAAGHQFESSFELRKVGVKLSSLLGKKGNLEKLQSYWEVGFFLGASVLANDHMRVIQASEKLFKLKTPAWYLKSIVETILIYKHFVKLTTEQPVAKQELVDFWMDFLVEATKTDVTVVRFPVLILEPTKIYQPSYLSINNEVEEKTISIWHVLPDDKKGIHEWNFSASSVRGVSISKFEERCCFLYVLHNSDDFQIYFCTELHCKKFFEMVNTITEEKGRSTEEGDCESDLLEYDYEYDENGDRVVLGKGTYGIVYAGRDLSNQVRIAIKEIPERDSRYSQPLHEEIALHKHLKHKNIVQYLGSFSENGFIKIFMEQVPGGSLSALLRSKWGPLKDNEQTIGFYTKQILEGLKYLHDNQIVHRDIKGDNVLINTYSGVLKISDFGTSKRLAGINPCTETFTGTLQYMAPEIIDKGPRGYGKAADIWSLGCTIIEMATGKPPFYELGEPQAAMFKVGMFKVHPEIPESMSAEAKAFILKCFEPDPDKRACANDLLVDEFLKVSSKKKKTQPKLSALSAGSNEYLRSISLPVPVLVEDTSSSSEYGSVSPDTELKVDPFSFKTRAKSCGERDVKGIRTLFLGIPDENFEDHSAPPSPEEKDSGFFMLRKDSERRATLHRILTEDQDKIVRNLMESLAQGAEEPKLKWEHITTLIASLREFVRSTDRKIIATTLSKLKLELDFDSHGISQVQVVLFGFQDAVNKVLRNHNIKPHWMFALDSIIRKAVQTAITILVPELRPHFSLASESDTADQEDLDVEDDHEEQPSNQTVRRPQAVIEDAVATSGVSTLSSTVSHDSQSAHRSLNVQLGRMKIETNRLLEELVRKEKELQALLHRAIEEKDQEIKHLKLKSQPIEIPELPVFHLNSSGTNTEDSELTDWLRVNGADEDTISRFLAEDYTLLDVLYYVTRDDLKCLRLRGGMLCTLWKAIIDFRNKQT
# PAK6 (human), sequence (Q9NQU5 whole entry, looked up): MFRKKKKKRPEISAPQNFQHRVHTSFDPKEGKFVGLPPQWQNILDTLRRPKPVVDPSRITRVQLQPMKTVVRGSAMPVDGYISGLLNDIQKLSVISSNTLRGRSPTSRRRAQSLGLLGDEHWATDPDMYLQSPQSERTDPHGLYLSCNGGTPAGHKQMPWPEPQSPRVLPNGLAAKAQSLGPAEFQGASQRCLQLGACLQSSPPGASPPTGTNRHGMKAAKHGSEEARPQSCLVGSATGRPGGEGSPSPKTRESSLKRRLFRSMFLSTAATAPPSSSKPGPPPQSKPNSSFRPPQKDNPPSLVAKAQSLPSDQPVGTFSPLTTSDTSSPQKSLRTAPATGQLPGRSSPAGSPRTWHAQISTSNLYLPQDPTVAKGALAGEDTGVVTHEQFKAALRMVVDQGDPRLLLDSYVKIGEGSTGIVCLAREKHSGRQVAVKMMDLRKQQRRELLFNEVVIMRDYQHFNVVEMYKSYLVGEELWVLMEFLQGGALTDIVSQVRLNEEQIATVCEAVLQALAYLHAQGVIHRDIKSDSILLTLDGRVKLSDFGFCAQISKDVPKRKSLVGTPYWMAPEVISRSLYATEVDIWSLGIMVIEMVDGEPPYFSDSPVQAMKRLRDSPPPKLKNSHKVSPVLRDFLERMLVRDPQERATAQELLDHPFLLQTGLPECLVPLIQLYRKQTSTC
# MST4 (human), sequence (Q9P289 whole entry, looked up): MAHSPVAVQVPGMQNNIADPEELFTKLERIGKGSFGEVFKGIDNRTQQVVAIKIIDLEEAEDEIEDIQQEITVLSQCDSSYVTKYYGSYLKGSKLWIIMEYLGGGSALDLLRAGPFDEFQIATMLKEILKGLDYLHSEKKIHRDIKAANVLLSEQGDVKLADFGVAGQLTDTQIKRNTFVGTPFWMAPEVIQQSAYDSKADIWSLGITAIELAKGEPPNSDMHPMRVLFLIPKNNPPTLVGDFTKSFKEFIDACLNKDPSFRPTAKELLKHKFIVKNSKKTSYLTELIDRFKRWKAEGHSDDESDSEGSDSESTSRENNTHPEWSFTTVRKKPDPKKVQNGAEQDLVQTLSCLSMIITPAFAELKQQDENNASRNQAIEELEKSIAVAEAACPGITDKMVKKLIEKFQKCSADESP
# PIM1 (human), sequence (P11309 whole entry, looked up): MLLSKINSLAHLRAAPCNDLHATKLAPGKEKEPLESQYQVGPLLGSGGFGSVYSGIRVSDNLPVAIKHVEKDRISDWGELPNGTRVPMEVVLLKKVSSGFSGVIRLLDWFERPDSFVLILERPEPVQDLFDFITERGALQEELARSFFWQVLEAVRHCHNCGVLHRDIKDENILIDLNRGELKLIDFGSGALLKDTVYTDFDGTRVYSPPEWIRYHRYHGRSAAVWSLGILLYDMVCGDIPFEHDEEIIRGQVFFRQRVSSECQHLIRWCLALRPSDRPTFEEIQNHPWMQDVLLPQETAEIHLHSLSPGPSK
# MAPK11 (human), sequence (Q15759 whole entry, looked up): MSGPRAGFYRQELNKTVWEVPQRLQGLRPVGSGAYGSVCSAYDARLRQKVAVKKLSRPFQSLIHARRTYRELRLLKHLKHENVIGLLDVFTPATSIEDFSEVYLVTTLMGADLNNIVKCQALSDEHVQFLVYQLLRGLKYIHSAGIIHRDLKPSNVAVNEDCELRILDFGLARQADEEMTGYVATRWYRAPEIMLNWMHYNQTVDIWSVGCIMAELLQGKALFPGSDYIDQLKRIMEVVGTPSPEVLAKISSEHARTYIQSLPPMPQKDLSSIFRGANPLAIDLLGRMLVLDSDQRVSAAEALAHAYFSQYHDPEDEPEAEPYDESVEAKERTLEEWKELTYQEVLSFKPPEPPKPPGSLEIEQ
# FGFR1 (human), sequence (P11362 whole entry, looked up): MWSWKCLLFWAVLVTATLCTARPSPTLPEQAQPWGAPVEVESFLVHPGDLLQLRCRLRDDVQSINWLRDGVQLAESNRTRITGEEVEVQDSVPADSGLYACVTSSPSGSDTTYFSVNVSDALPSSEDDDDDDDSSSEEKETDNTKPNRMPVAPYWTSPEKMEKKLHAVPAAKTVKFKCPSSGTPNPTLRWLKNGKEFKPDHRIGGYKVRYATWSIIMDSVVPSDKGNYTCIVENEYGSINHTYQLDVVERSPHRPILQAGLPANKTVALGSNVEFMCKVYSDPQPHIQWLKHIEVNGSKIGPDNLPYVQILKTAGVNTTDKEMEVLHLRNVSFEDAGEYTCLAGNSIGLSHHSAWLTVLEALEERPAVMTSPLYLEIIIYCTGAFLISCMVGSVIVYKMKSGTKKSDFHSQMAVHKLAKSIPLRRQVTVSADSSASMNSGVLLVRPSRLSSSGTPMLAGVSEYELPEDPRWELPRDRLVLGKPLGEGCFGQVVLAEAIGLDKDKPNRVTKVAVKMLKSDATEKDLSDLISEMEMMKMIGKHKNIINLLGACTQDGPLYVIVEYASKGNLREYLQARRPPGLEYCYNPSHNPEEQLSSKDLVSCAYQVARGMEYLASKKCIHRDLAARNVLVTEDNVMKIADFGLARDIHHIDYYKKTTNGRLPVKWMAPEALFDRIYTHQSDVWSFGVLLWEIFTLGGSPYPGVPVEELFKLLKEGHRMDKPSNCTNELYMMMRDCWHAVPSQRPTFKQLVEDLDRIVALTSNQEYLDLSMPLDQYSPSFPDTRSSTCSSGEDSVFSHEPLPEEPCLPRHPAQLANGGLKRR
# EPHB3 (human), sequence (P54753 whole entry, looked up): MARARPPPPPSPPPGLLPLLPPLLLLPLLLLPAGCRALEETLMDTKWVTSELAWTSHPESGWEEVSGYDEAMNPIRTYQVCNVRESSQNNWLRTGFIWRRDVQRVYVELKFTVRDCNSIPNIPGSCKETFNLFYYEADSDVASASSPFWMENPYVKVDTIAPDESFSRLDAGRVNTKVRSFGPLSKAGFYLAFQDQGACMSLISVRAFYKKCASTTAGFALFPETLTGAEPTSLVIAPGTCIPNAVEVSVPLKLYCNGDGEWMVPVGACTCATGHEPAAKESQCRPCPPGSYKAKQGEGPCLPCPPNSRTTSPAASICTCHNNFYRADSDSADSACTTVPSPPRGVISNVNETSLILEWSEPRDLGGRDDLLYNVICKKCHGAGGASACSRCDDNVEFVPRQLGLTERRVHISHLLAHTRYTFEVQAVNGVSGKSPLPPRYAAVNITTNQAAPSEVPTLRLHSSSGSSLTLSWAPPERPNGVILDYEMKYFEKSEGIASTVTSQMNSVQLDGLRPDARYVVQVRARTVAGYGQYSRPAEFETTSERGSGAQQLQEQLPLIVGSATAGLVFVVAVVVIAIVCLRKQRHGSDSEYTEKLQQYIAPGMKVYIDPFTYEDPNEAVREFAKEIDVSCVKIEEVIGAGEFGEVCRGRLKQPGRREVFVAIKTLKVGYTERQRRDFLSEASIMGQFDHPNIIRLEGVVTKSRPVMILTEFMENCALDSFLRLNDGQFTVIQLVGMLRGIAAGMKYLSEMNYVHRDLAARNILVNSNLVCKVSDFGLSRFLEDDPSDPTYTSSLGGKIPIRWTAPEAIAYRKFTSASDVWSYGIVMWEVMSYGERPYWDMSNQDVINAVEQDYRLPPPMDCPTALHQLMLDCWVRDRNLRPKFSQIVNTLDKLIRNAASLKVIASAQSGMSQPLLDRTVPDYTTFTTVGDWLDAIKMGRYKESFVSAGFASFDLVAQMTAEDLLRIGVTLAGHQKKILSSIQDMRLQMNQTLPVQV
inhibition (PAK6 (human)),inhibition (MARK3 (human)),inhibition (MARK1 (human)),inhibition (MST4 (human)),inhibition (FGFR1 (human)),inhibition (MAPK11 (human)),inhibition (STK16 (human)),inhibition (MAP3K5 (human)),inhibition (ROCK2 (rat)),inhibition (TAOK1 (human)),inhibition (STK3 (human)),inhibition (EPHA4 (human)),inhibition (MKNK1 (human)),inhibition (IRAK4 (human)),inhibition (RPS6KA1 KD1 KD2 (human)),inhibition (CSK (human)),inhibition (EEF2K (human)),inhibition (EPHA2 (human)),inhibition (GCK (human)),inhibition (MAP3K1 (human)),Structure (SMILES),also measured
0%,9%,13%,0%,6%,7%,0%,0%,13%,0%,3%,15%,0%,6%,17%,26%,6%,12%,0%,0%,O=c1c(NC(=S)NCc2ccccc2)cnc2[nH]ccn12,inhibition (PTK6 (human)): 31%; inhibition (EPHB4 (human)): 9%; inhibition (BRSK1 (human)): 2%; inhibition (MAPK8 (human)): 0%; inhibition (EPHB3 (human)): 0%; inhibition (LCK (mouse)): 0%; inhibition (CLK2 (human)): 3%; inhibition (MARK4 (human)): 21%; inhibition (MAP3K7 TAB1 (human)): 20%; inhibition (PRKCZ (human)): 0%; inhibition (PLK1 (human)): 0%; inhibition (PIM1 (human)): 0%; inhibition (MAP2K2 (human)): 0%; inhibition (PRKACA (human)): 0%; inhibition (MAPK12 (human)): 0%
36%,59%,0%,41%,79%,34%,7%,32%,52%,37%,6%,42%,71%,80%,34%,71%,36%,28%,93%,34%,Nc1nc2cnc(-c3ccccc3)cn2n1,inhibition (PTK6 (human)): 53%; inhibition (EPHB4 (human)): 56%; inhibition (BRSK1 (human)): 27%; inhibition (MAPK8 (human)): 30%; inhibition (EPHB3 (human)): 54%; inhibition (LCK (mouse)): 75%; inhibition (CLK2 (human)): 74%; inhibition (MARK4 (human)): 44%; inhibition (MAP3K7 TAB1 (human)): 86%; inhibition (PRKCZ (human)): 13%; inhibition (PLK1 (human)): 18%; inhibition (PIM1 (human)): 30%; inhibition (MAP2K2 (human)): 35%; inhibition (PRKACA (human)): 9%; inhibition (MAPK12 (human)): 1%
10%,86%,49%,77%,88%,13%,3%,86%,76%,82%,64%,25%,1%,31%,21%,11%,16%,33%,95%,21%,Nc1cnc2c(-c3c(F)cccc3F)cccn2c1=O,inhibition (PTK6 (human)): 67%; inhibition (EPHB4 (human)): 39%; inhibition (BRSK1 (human)): 22%; inhibition (MAPK8 (human)): 41%; inhibition (EPHB3 (human)): 42%; inhibition (LCK (mouse)): 39%; inhibition (CLK2 (human)): 91%; inhibition (MARK4 (human)): 62%; inhibition (MAP3K7 TAB1 (human)): 80%; inhibition (PRKCZ (human)): 0%; inhibition (PLK1 (human)): 0%; inhibition (PIM1 (human)): 31%; inhibition (MAP2K2 (human)): 71%; inhibition (PRKACA (human)): 8% and 12%; inhibition (MAPK12 (human)): 17%
4%,25%,26%,2%,34%,0%,6%,4%,17%,0%,0%,16%,0%,3%,0%,0%,35%,0%,0%,0%,CC1CN(c2nc3ccccn3c(=O)c2N)CC(C)O1 (stereo not given),inhibition (PTK6 (human)): 21%; inhibition (EPHB4 (human)): 12%; inhibition (BRSK1 (human)): 12%; inhibition (MAPK8 (human)): 14%; inhibition (EPHB3 (human)): 0%; inhibition (LCK (mouse)): 2%; inhibition (CLK2 (human)): 57%; inhibition (MARK4 (human)): 56%; inhibition (MAP3K7 TAB1 (human)): 0%; inhibition (PRKCZ (human)): 0%; inhibition (PLK1 (human)): 0%; inhibition (PIM1 (human)): 7%; inhibition (MAP2K2 (human)): 0%; inhibition (PRKACA (human)): 0% and 15%; inhibition (MAPK12 (human)): 1%
0%,29%,31%,12%,57%,15%,4%,54%,39%,3%,27%,0%,0%,28%,47%,10%,39%,37%,7%,0%,O=C(c1cccc(-c2cc3c(=O)[nH]cnc3s2)c1)N1CCOCC1,inhibition (PTK6 (human)): 50%; inhibition (EPHB4 (human)): 0%; inhibition (BRSK1 (human)): 38%; inhibition (MAPK8 (human)): 8%; inhibition (EPHB3 (human)): 6%; inhibition (LCK (mouse)): 40%; inhibition (CLK2 (human)): 46%; inhibition (MARK4 (human)): 0%; inhibition (MAP3K7 TAB1 (human)): 78%; inhibition (PRKCZ (human)): 0%; inhibition (PLK1 (human)): 0%; inhibition (PIM1 (human)): 61%; inhibition (MAP2K2 (human)): 8%; inhibition (PRKACA (human)): 17% and 42%; inhibition (MAPK12 (human)): 0%
0%,0%,0%,0%,65%,0%,0%,4%,2%,0%,0%,9%,0%,0%,3%,0%,18%,0%,8%,0%,CC(C)(C)Nc1c(C2CC2)nc2[nH]cnn12,inhibition (PTK6 (human)): 25%; inhibition (EPHB4 (human)): 19%; inhibition (BRSK1 (human)): 0%; inhibition (MAPK8 (human)): 0%; inhibition (EPHB3 (human)): 68%; inhibition (LCK (mouse)): 0%; inhibition (CLK2 (human)): 34%; inhibition (MARK4 (human)): 15%; inhibition (MAP3K7 TAB1 (human)): 3%; inhibition (PRKCZ (human)): 0%; inhibition (PLK1 (human)): 0%; inhibition (PIM1 (human)): 11%; inhibition (MAP2K2 (human)): 0%; inhibition (PRKACA (human)): 0% and 5%; inhibition (MAPK12 (human)): 0%
